# Results as given in patent publication US9365562B2, “1,3 substituted azetidine PDE10 inhibitors” (Merck Sharp & Dohme Corp., priority 2011, dated 2016).
# Target: human PDE10A2 (Homo sapiens (Human), UniProt Q9Y233)
# Assay: PDE10 fluorescence polarization (IMAP FP) inhibition assay
# Type: biochemical
# Conditions: apparent inhibition constant, FAM-labeled cAMP substrate 50 nM, room temperature
# Procedure, shortened: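 Cytoplasmic lysate of AD293 cells transiently expressing human PDE10A2, enzyme preincubated 60 min at room temperature with compounds (1% DMSO), then 50 nM FAM-cAMP added for 60 min. Buffer 10 mM Tris HCl pH 7.2, 10 mM MgCl2, 1 mM DTT; IMAP binding reagent stop, FP read after ≥1 h.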
# Chain of human PDE10A2 (Q9Y233 267-1055): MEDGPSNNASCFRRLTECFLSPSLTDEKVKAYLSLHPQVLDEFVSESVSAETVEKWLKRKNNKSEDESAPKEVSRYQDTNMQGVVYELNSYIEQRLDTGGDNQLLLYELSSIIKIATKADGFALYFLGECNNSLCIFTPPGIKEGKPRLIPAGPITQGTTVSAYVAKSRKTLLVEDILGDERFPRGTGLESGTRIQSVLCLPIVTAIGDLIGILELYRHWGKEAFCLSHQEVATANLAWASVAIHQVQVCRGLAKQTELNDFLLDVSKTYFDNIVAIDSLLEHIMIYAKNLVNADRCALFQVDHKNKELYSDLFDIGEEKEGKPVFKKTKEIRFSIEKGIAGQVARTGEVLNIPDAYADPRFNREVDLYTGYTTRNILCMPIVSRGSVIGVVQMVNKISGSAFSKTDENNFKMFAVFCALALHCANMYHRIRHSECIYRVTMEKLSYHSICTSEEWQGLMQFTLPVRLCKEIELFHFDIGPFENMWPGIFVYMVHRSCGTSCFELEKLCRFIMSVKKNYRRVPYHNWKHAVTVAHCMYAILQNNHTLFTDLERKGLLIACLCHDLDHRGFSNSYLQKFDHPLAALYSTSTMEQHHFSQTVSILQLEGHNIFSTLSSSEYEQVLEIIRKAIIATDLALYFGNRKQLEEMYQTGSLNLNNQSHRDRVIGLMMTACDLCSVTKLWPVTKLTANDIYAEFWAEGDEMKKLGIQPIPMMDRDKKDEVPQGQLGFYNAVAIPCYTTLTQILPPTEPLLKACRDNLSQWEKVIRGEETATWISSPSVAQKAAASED
row,Structure (SMILES),Ki [nM]
1,"Cc1nc(N2CC(c3nc4ccccc4n3C)C2)cc(-n2nc(C)nc2Cc2ccc(F)cc2)n1 [Example 58, 2-(1-(6-(5-(4-fluorobenzyl)-3-methyl-1H-1,2,4-triazol-1-yl)-2-methylpyrimidin-4-yl)azetidin-3-yl)-1-methyl-1H-benzo[d]imidazole]",0.12
2,"Cc1nc(-c2cccnn2)cc(N2CC(c3nc4ccccc4n3C)C2)n1 [Example 106, 1-methyl-2-{1-[2-methyl-6-(pyridazin-3-yl)pyrimidin-4-yl]azetidin-3-yl}-1H-benzimidazole]",11
3,"COC(=O)c1nc(N2CC(c3nc4ccccc4n3C)C2)cc(-n2nc(C)nc2C)n1 [Example 24, methyl 4-(3,5-dimethyl-1H-1,2,4-triazol-1-yl)-6-(3-(1-methyl-1H-benzo[d]imidazol-2-yl)azetidin-1-yl)pyrimidine-2-carboxylate]",1.8
4,"Cc1nc(-c2ccccc2OC(F)F)cc(N2CC(c3nc4ccccc4n3C)C2)n1 [Example 91, 2-(1-(6-(2-(difluoromethoxy)phenyl)-2-methylpyrimidin-4-yl)azetidin-3-yl)-1-methyl-1H-benzo[d]imidazole]",22
